Measurements from patent publication US8546376B2, “Pharmaceutical compounds” (Almac Discovery Limited, priority 2009, dated 2013).
Counter-ions that a name gives are not always drawn.

Experiments:
AKT1 = biological target: T1, AKT1 (Homo sapiens, UniProt P31749); assay: AKT Kinase Assay (IMAP fluorescent polarisation) vs AKT1; type: biochemical; conditions: activated AKT1, FAM Crosstide substrate
T1 construct: purchased SignalChem
Method in brief: (§1)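 IC50 values came from non-linear regression of % inhibition relative to vehicle, measured by IMAP fluorescence polarisation (485/528 nm) after a 1 h room-temperature reaction of FAM-Crosstide and ATP. Each activated isoform was first exposed to compound for 45 min across fourteen half-log doses.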

[1] = tested on: PC3 and/or LnCaP cell lines; assay: In vitro cell proliferation assay (Cell Titre Glo); type: cell-based; conditions: Homo sapiens, 72 hours, read-out: inhibition of proliferation IC50
Protocol: Testing of the compounds was also performed using in vitro cell proliferation assays:
Cell Titre Glo (Promega) is a highly sensitive homogeneous reagent used to determine the viability of cells. The reagent uses a stable form of luciferase to measure ATP as an output of viability. The luminescent values generated in the assay are directly proportional to the number of viable cells in your assay.
The following materials were used: White, clear bottomed 96 well assay plates (Costar); Cell titre Glo reagents; LnCaP (ECACC) cells grown in RPMI medium (Invitrogen) supplemented with 10 mM HEPES (Invitrogen), 1 mM Sodium pyruvate (Invitrogen), 2 mM L-Glutamine (Invitrogen) and 10% Foetal calf serum (Invitrogen); PC3 (ECACC) cells grown in RPMI medium supplemented with 10% Foetal calf serum (Invitrogen); Trypsin (Invitrogen); PBS (Invitrogen); Biotek Synergy 4 Hybrid Plate reader; 96 well plate shaker (Stuart SSL5); Eppendorf 5414 desk-top centrifuge; Beckman Coulter cell counter Z1 single threshold system.
Prostate cell lines, PC3 and LnCaP, were washed, detached and re-suspended in their respective fresh media. The cells were pelleted by centrifugation (Eppendorf 5414) and spent supernatant discarded. The cells were re-suspended by vortex mixing, counted and seeded into clear bottom white 96 well plates at a density of 5000 cells per well. The cells were incubated (Sanyo) overnight at 37° C. ([…]), and next day treated with increasing concentrations of test compound formulated in fresh medium. The plates were returned to the incubator for 72 hours. […]
The cell viability post compound treatment was determined by the luminescent intensity emitted from the drug treated wells in the plate. In brief, the assay plate was placed in the Biotex Synergy 4 Hybrid plate reader and the luminescence read in each well. The compound treated wells were compared to vehicle treated wells and the % inhibition of cell viability calculated.
The data was analysed using GraphPad Prism, with IC50 values generated using non-linear regression of the data set.

AKT2 = biological target: T2, AKT2 (Homo sapiens, UniProt P31751); assay: AKT Kinase Assay (IMAP fluorescent polarisation) vs AKT2; type: biochemical; conditions: activated AKT2, FAM Crosstide substrate
T2 construct: purchased SignalChem
T2 sequence (P31751 whole entry): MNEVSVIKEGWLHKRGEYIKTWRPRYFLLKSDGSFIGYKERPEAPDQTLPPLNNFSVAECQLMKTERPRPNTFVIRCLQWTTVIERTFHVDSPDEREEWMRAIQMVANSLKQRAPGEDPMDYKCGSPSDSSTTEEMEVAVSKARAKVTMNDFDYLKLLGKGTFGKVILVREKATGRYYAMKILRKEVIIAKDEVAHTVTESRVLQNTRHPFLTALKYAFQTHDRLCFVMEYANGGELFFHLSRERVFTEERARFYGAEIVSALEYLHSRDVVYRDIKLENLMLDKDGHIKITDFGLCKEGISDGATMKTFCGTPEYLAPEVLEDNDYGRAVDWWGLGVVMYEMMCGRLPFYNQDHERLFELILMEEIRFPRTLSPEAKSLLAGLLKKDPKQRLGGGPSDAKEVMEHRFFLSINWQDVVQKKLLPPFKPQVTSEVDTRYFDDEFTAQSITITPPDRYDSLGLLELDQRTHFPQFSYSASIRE
Method in brief: as §1

AKT3 = biological target: T3, AKT3 (Homo sapiens, UniProt Q9Y243); assay: AKT Kinase Assay (IMAP fluorescent polarisation) vs AKT3; type: biochemical; conditions: activated AKT3, FAM Crosstide substrate
T3 construct: purchased SignalChem
T3 sequence (Q9Y243 whole entry): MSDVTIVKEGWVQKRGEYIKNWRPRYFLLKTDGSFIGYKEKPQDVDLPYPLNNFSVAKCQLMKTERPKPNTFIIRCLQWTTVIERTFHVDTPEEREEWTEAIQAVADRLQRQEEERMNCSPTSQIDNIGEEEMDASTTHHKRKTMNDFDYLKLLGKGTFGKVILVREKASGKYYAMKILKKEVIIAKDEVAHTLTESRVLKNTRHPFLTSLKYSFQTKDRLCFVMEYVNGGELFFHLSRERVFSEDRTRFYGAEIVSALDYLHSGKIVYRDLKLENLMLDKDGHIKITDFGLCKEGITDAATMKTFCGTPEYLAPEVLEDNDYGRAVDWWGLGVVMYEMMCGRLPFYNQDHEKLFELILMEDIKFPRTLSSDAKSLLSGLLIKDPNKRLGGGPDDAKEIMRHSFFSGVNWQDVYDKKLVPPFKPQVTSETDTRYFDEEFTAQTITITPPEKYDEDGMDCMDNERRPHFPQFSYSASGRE
Method in brief: as §1

AKT phosphorylation = assay: Phosphorylation status of AKT/PI3K pathway members via western blotting; type: cell-based; conditions: for 48 h at 10 μM
Description: Analysis of Compound Effects on AKT Signalling Pathways
Phosphorylation status of various members of the AKT/PI3K pathway were investigated via western blotting.
Materials Required for this Assay: 20× Running buffer (Invitrogen); Rainbow marker ladder (GE Healthcare); Reducing buffer (Invitrogen); 20× Transfer buffer (Invitrogen); 4-12% Bis-Tris Gels (Invitrogen); Filter paper (Whatman); Nitrocellulose (Amersham); ECL plus detection reagents (GE Healthcare); Radiographic film (Kodak); Biorad Protein determination reagent (Biorad); AKT pathway signalling antibodies (Cell Signalling)
LnCaP and PC3 cell lines were washed, detached and re-suspended in fresh medium. They were seeded in 90 mm^2 dishes and incubated overnight ([…]/5% CO2) to allow adherence. […]
The medium was removed and the cells placed on ice and washed in PBS. […] The resultant supernatant was assayed for protein content using the Bradford method (Biorad) and equal quantities of protein calculated and heated in sample reducing buffer to 95° C. for ten minutes. […]
The membranes were used to determine difference in total AKT, pSer473 AKT, pGSK3β and total GSK3β (all sourced from Cell Signalling). […] The membranes were washed three times in PBS and incubated with the respective secondary antibodies (Sigma Aldrich) for two hours and the proteins were detected using ECL plus detection reagents (GE Healthcare).

T1 sequence (P31749 whole entry): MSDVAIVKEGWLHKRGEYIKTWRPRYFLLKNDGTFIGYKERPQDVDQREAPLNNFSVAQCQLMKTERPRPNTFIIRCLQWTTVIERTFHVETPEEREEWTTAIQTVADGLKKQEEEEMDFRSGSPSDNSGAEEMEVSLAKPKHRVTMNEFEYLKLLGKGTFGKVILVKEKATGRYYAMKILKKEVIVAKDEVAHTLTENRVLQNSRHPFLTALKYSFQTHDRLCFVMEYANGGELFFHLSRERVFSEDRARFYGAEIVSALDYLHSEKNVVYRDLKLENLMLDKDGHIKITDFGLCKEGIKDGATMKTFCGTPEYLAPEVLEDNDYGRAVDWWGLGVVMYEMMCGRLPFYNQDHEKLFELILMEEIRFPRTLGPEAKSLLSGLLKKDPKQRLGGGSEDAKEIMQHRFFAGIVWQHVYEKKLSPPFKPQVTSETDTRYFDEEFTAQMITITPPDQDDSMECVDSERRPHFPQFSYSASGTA

| IC50 (AKT1) [nM] | IC50 [1] [nM] | IC50 (AKT2) [nM] | IC50 (AKT3) [nM] | SMILES | inhibition of AKT phosphorylation (AKT phosphorylation) |
| --- | --- | --- | --- | --- | --- |
| ≤ 1000 | < 10000 | ≤ 1000 | ≤ 1000 | NC1(c2ccc(-c3c(-c4ccccc4)oc4c(cc(Cl)c5nc[nH]c54)c3=O)cc2)CCC1 [Example 44, 7-[4-(1-Amino-cyclobutyl)-phenyl]-4-chloro-8-phenyl-1H-chromeno[7,8-d]imidazol-6-one] | – |
| 1000 to 10000 | < 10000 | ≤ 1000 | > 10000 | COc1ccc2c(=O)c(-c3ccc(C4(N)CCC4)cc3)c(-c3ccccc3)oc2c1OC [Example 4, 3-[4-(1-Amino-cyclobutyl)-phenyl]-7,8-dimethoxy-2-phenyl-chromen-4-one] | – |
| 1000 to 10000 | – | ≤ 1000 | > 10000 | CN1CCN(c2ccc3oc(-c4ccccc4)c(-c4ccc(C5(N)CCC5)cc4)c(=O)c3c2)CC1 [Example 20, 3-[4-(1-Amino-cyclobutyl)-phenyl]-6-(4-methyl-piperazin-1-yl)-2-phenyl-chromen-4-one] | inhibition of AKT phosphorylation |
| ≤ 1000 | – | > 10000 | > 10000 | Nc1cc2oc(-c3ccccc3)c(-c3ccc(C4(N)CCC4)cc3)c(=O)c2cc1Br [Example 49, 7-Amino-3-[4-(1-amino-cyclobutyl)-phenyl]-6-bromo-2-phenyl-chromen-4-one. TFA] | – |
| ≤ 1000 | – | ≤ 1000 | 1000 to 10000 | NC1(c2ccc(-c3c(-c4ccccc4)oc4c(-n5ccnc5)cccc4c3=O)cc2)CCC1 [Example 74, 3-[4-(1-Amino-cyclobutyl)-phenyl]-8-imidazol-1-yl-2-phenyl-chromen-4-one hydrochloride] | – |
| ≤ 1000 | – | > 10000 | > 10000 | NC1(c2ccc(-c3c(-c4ccccc4)oc4c(Br)cccc4c3=O)cc2)COC1 [Example 67, 3-[4-(3-Amino-oxetan-3-yl)-phenyl]-8-bromo-2-phenyl-chromen-4-one] | – |
| ≤ 1000 | – | ≤ 1000 | 1000 to 10000 | NC1(c2ccc(-c3c(-c4ccccc4)oc4c(ccc5cnn(CCO)c54)c3=O)cc2)CCC1 [Example 85, 7-[4-(1-Amino-cyclobutyl)-phenyl]-1-(2-hydroxy-ethyl)-8-phenyl-1H-9-oxa-1,2-diaza-cyclopenta[a]naphthalen-6-one hydrochloride] | – |
| ≤ 1000 | – | ≤ 1000 | ≤ 1000 | NC1(c2ccc(-c3c(-c4ccccc4)oc4c(-c5c[nH]nn5)cccc4c3=O)cc2)CCC1 [Example 106, 3-[4-(1-Amino-cyclobutyl)-phenyl]-2-phenyl-8-(1H-[1,2,3]triazol-4-yl)-chromen-4-one] | – |
| 1000 to 10000 | – | 1000 to 10000 | > 10000 | Nc1ccc2c(=O)c(-c3ccc(C4(N)CCC4)cc3)c(-c3ccccc3)oc2c1 [Example 47, 7-Amino-3-[4-(1-amino-cyclobutyl)-phenyl]-2-phenyl-1-benzopyran-4-one.TFA] | – |
| 1000 to 10000 | – | 1000 to 10000 | > 10000 | COc1cc2oc(-c3ccccc3)c(-c3ccc(C4(N)CCC4)cc3)c(=O)c2cc1C [Example 7, 3-[4-(1-Amino-cyclobutyl)-phenyl]-7-methoxy-6-methyl-2-phenyl-chromen-4-one] | – |

Second part, the compound before the results:

| SMILES | IC50 (AKT1) [nM] | IC50 [1] [nM] | IC50 (AKT2) [nM] | IC50 (AKT3) [nM] | inhibition of AKT phosphorylation (AKT phosphorylation) |
| --- | --- | --- | --- | --- | --- |
| COc1ccc2c(=O)c(-c3ccc(C4(N)CCC4)cc3)c(-c3ccccc3)oc2n1 [Example 35, 3-[4-(1-Amino-cyclobutyl)-phenyl]-7-methoxy-2-phenyl-pyrano[2,3-b]pyridin-4-one hydrochloride] | 1000 to 10000 | – | 1000 to 10000 | 1000 to 10000 | – |
| NC1(c2ccc(-c3c(-c4ccccc4)oc4c(=O)n(CCO)ccc4c3=O)cc2)CCC1 [Example 43, 3-[4-(1-Amino-cyclobutyl)-phenyl]-7-(2-hydroxy-ethyl)-2-phenyl-7H-pyrano[2,3-c]pyridine-4,8-dione hydrochloride] | > 10000 | – | > 10000 | > 10000 | – |
| NC1(c2ccc(-c3c(-c4ccccc4)oc4c(ccc5nn[nH]c54)c3=O)cc2)CCC1 [Example 88, 7-[4-(1-Amino-cyclobutyl)-phenyl]-8-phenyl-1H-9-oxa-1,2,3-triaza-cyclopenta[a]naphthalen-6-one] | ≤ 1000 | – | ≤ 1000 | > 10000 | – |
| CON=c1c(-c2ccc(C3(N)CCC3)cc2)c(-c2ccccc2)oc2ccccc12 [Example 66, 3-[4-(1-Amino-cyclobutyl)-phenyl]-2-phenyl-chromen-4-one O-methyl-oxime] | ≤ 1000 | – | 1000 to 10000 | > 10000 | – |
| NC1(c2ccc(C3=C(c4ccccc4)c4ccccc4C3=O)cc2)CCC1 [Example 48, 2-(4-(1-aminocyclobutyl)phenyl)-3-phenyl-1H-inden-1-one hydrochloride] | 1000 to 10000 | – | 1000 to 10000 | 1000 to 10000 | – |
| Cn1cnc2ccc3c(=O)c(-c4ccc(C5(N)CCC5)cc4)c(-c4ccccc4)oc3c21 [Example 96, 7-[4-(1-Amino-cyclobutyl)-phenyl]-1-methyl-8-phenyl-1H-chromeno[7,8-d]imidazol-6-one] | ≤ 1000 | – | ≤ 1000 | ≤ 1000 | – |
| NC1(c2ccc(-c3c(-c4ccccc4)oc4c(N5CCNC(=O)C5)cccc4c3=O)cc2)CCC1 [Example 77, 4-{3-[4-(1-Amino-cyclobutyl)-phenyl]-4-oxo-2-phenyl-4H-chromen-8-yl}-piperazin-2-one] | ≤ 1000 | – | 1000 to 10000 | 1000 to 10000 | – |
| NC1(c2ccc(-c3c(-c4ccccc4)oc4c(-c5ccccc5)nccc4c3=O)cc2)CCC1 [Example 124, 3-(4-(1-aminocyclobutyl)phenyl)-2,8-diphenyl-4H-pyrano[2,3-c]pyridin-4-one] | ≤ 1000 | – | 1000 to 10000 | 1000 to 10000 | – |
| N#Cc1cccc(-c2nccc3c(=O)c(-c4ccc(C5(N)CCC5)cc4)c(-c4ccccc4)oc23)c1 [Example 122] | ≤ 1000 | – | ≤ 1000 | > 10000 | – |
| COc1cc2c(=O)c(-c3ccc(C4(N)CCC4)cc3)c(-c3ccccc3)oc2cc1C(N)=O [Example 29, 3-[4-(1-Amino-cyclobutyl)-phenyl]-6-methoxy-4-oxo-2-phenyl-4H-chromene-7-carboxylic acid amide] | 1000 to 10000 | – | ≤ 1000 | > 10000 | – |
| NC1(c2ccc(-c3c(-c4ccccc4)oc4c(-n5ccnc5)nccc4c3=O)cc2)CCC1 [Example 114, 3-(4-(1-aminocyclobutyl)phenyl)-8-(1H-imidazol-1-yl)-2-phenyl-4H-pyrano[2,3-c]pyridin-4-one] | ≤ 1000 | – | 1000 to 10000 | > 10000 | – |
| COc1cc2oc(-c3ccccc3)c(-c3ccc(C4(N)CCC4)cc3)c(=O)c2cc1Br [Example 27, 3-[4-(1-Amino-cyclobutyl)-phenyl]-6-bromo-7-methoxy-2-phenyl-chromen-4-one] | > 10000 | – | 1000 to 10000 | > 10000 | – |
